One test deals with HTLV-IIIB. Kind of test: p24 antigen in infected resting T-lymphocytes exposed to drugs for 6 days before PHA activation. The class given is cell-based, HIV-1. The procedure: The effect of RV and nucleoside analogues in infected resting T-lymphocytes was evaluated in the present example. Purified resting cells were used. Absence of activated lymphocytes in the preparation was determined by incubation of the cells in the presence of a monoclonal antibody directed against the low affinity IL-2 receptor CD25 (Pharmingen, San Diego, Calif.), and subsequent analysis by flow cytometry. […] Cells were infected with HTLV-IIIB at a multiplicity of infection of 10^4 TCID50/10^6 cells for 3 hours. A high multiplicity of infection (m.o.i.) was used because of a reported short half life of HIV-1 unintegrated DNA in infected resting lymphocytes. Infected cells were washed 3 times with PBS to remove virus excess and resuspended in 10% FBS RPMI medium supplemented with drugs. To ensure that any antiviral activity exerted by the drugs occurred during the resting state, drugs were removed six days after infection by washing with PBS 3 times, and cells were activated by culturing in the presence of PHA for 2 days. Cells were then cultured in IL-2 medium without drugs, and supernatants were monitored for the presence of p24 antigen. Cultures were maintained for 20 days.
Purified resting T-lymphocytes from a seronegative donor were infected with HTLV-IIIB at the high multiplicity of infection and cultured in the presence of 5 or 10 μM RV plus ddI (0, 0.25, 0.5 μM), ddC (0, 0.1 μM) or AZT (0, 4 μM) for 6 days. Concentrations used for ddC and AZT correspond to the highest, nontoxic concentration attainable in plasma of treated individuals. […] On day 6 after infection, drugs were washed away and cells were activated with PHA. The extent of viral replication was evaluated on day 6 (prior to PHA activation) and days 14 and 20 after infection. On day 6 very low amounts of p24 antigen could be detected under every condition tested, likely representing residual virus from the infecting inoculum. […] No toxicity was found by the MTT assay in uninfected culture controls treated with 5 μM RV and 0.5 μM ddI for 20 days under the same conditions.

In the next test the test system is HIV-1SF162. Kind of test: p24 antigen production in monocyte-derived macrophages infected with HIV-1SF162. The class given is cell-based. The following applies: for virus production after drug removal on day 20: 10 μM ddI with or without 10 μM RV, 14 further days. As to the method: MDMs were prepared as described infra, and infected with the SF162 strain of HIV-1 obtained from Dr. Levy at the National Institutes of Health AIDS Research and Reference Reagent Program (Rockville, Md.). Briefly, 25×10^6 freshly isolated PBMCs were cultured for 5 days in T-25 flasks (Coming Costar, Cambridge, Mass.) containing culture medium supplemented with 20% FBS and 10% AB human serum (Gemini Bioproducts, Inc., Calabasas, Calif.). On day 5, non-adherent cells were removed by washing five times with warm RPMI/10%FBS medium. Adherent cells in representative flasks were counted by trypan blue exclusion. By morphology and cytochemical staining for nonspecific esterase (Sigma), more than 97% of cells were macrophages. HIV infection was carried out by adding virus to the flask at a multiplicity of infection of 2000 TCID50/10^6 adherent cells and incubating for 3 hours. Flasks were then washed 3 times with warm RPMI/10%FBS medium and cultured in RPMI containing 20% FBS plus drugs. Every 3 days culture supernatants were collected and fresh medium containing drugs was added to each flask. Virus replication was assayed weekly for p^24 antigen production as described in Example 1 in the supernatant. Cultures were maintained for 3 weeks.
For the present example, cultures were maintained in the presence of 10 μM RV and varying concentrations of ddI. The amount of p24 antigen produced in the supernatant was measured on days 7 and 16 after infection. […] However, a 10-fold or greater potentiation of ddI-antiviral activity was observed when the nucleoside analogue was combined with 10 μM RV.
MDMs derived from 2 seronegative donors were infected with the SF 162 strain of HIV-1 and cultured in the presence of 10 μM ddI, a plasma level attainable in treated individuals. The anti-HIV effect of this concentration of ddI was investigated in the presence or absence of 10 μM RV. DdI alone (10 μM) inhibited viral replication by more than 90% in both donors on day 7 after infection. […] The strong antiviral activity achieved by RV plus ddI on day 16 was further analyzed by removing the drugs from the culture. The drugs were then removed on day 20 and the macrophages maintained in culture for an additional 14 days. In donor #1 MDMs, a virus rebound followed drug removal in the cultures that had been exposed to ddI alone.

A word on the inhibition: it is the share of the control response that was lost under treatment.

`OC[C@@H]1CC[C@H](n2cnc3c(O)ncnc32)O1` [ddI, 2′,3′-dideoxyinosine]: the virus production entry in the test with HTLV-IIIB (ddI 1 μM, previous studies under these conditions) was “completely suppress virus production”. The “viral replication after PHA activation” value with HTLV-IIIB (ddI by itself (0.25, 0.5 μM)) was “did not suppress viral replication”. In the test on HIV-1SF162 (Human immunodeficiency virus 1, Macrophage, 168 h, ddI alone 10 μM, both donors, day 7, read-out: inhibition of viral replication), the inhibition at 10 µM was above 90%. Further, the “virus production after drug removal on day 20” value with HIV-1SF162 (donor #1 MDMs) is “virus rebound”; in the test on HIV-1SF162 (donor #2 MDMs) it was “continued releasing virus”.

Turning to `Oc1ccc(/C=C/c2cc(O)cc(O)c2)cc1` [RV, trans-3, 4′, 5-trihydroxystilbene], in the test on HTLV-IIIB (RV alone (5 or 10 μM)), the “virus production on days 14 and 20 following PHA activation” value is listed as “considerable virus production”. In addition, the anti-HIV effect entry in the test on HIV-1SF162 (RV 10 μM in the absence of ddI, 2 donors) was “only a modest anti-HIV effect”.
